Test results as given in the supplement of paper PMC5908809.

Legend:
NK-YS (IL-2 2.5 ng/mL) [1] = assay: drug sensitivity score (DSS) (DSS units); higher = more sensitive; extreme values may be limits of the assay; conditions: 72 h
[2] = tested on: normal primary NK cells, pool 2 (3 donors) (IL-2 2.5 ng/mL); assay: as above; conditions: 72 h
NK-92 (IL-2 2.5 ng/mL) [3] = assay: as above; conditions: 72 h
KAI3 (IL-2 2.5 ng/mL) [4] = assay: as above; conditions: 72 h
YT (IL-2 2.5 ng/mL) [5] = assay: as above; conditions: 72 h
[6] = tested on: normal primary NK cells, pool 1 (3 donors), resting (IL-2 0 ng/mL); assay: as above; conditions: 72 h
NKL (IL-2 2.5 ng/mL) [7] = assay: as above; conditions: 72 h
[8] = tested on: normal primary NK cells, pool 1 (3 donors) (IL-2 2.5 ng/mL); assay: as above; conditions: 72 h
[9] = tested on: normal primary NK cells, pool 3 (3 donors) (IL-2 2.5 ng/mL); assay: as above; conditions: 72 h
IMC-1 (IL-2 20 ng/mL) [10] = assay: as above; conditions: 72 h
SNK-6 (IL-2 2.5 ng/mL) [11] = assay: as above; conditions: 72 h
KHYG-1 (IL-2 2.5 ng/mL) [12] = assay: as above; conditions: 72 h
DERL-7 (IL-2 2.5 ng/mL) [13] = assay: as above; conditions: 72 h
[14] = tested on: normal NK cells expanded with K562-aAPC; assay: as above; conditions: 72 h; IL-2 2.5 ng/mL
Method: (§1)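 Drug sensitivity and resistance testing on K562-aAPC-expanded normal NK cells: 5 concentrations (10-fold steps over a 10,000-fold range), 72 h at 37 °C, viability by CellTiter-Glo normalised to DMSO and benzethonium chloride controls; DSS from the fitted curve.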

NK-YS (IL-2 2.5 ng/mL) [15] = assay: percent inhibition of viability; higher = more inhibition; conditions: 72 h
[16] = tested on: normal primary NK cells, pool 2 (3 donors) (IL-2 2.5 ng/mL); assay: as above; conditions: 72 h
NK-92 (IL-2 2.5 ng/mL) [17] = assay: as above; conditions: 72 h
KAI3 (IL-2 2.5 ng/mL) [18] = assay: as above; conditions: 72 h
YT (IL-2 2.5 ng/mL) [19] = assay: as above; conditions: 72 h
[20] = tested on: normal primary NK cells, pool 1 (3 donors), resting (IL-2 0 ng/mL); assay: as above; conditions: 72 h
NKL (IL-2 2.5 ng/mL) [21] = assay: as above; conditions: 72 h
[22] = tested on: normal primary NK cells, pool 1 (3 donors) (IL-2 2.5 ng/mL); assay: as above; conditions: 72 h
[23] = tested on: normal primary NK cells, pool 3 (3 donors) (IL-2 2.5 ng/mL); assay: as above; conditions: 72 h
IMC-1 (IL-2 20 ng/mL) [24] = assay: as above; conditions: 72 h
SNK-6 (IL-2 2.5 ng/mL) [25] = assay: as above; conditions: 72 h
KHYG-1 (IL-2 2.5 ng/mL) [26] = assay: as above; conditions: 72 h
DERL-7 (IL-2 2.5 ng/mL) [27] = assay: as above; conditions: 72 h
[28] = tested on: normal NK cells expanded with K562-aAPC; assay: as above; conditions: 72 h, IL-2 2.5 ng/mL
Method: as §1

COc1cccc2c1C(=O)c1c(O)c3c(c(O)c1C2=O)C[C@@](O)(C(=O)CO)C[C@@H]3O[C@H]1C[C@H](N)[C@H](O)[C@H](C)O1 [Doxorubicin] (max concentration tested 1000 nM)
Conditions | drug sensitivity score
DERL-7 (IL-2 2.5 ng/mL) [13] | 17.4
IMC-1 (IL-2 20 ng/mL) [10] | 16
KAI3 (IL-2 2.5 ng/mL) [4] | 16.2
KHYG-1 (IL-2 2.5 ng/mL) [12] | 14.6
NK-92 (IL-2 2.5 ng/mL) [3] | 12.8
NK-YS (IL-2 2.5 ng/mL) [1] | 17.1
NKL (IL-2 2.5 ng/mL) [7] | 28.7
SNK-6 (IL-2 2.5 ng/mL) [11] | 15.5
YT (IL-2 2.5 ng/mL) [5] | 13.3
[2] | 10.2
[6] | 13.3
[8] | 10.3
[9] | 8.97
[14] | 10.8

percent inhibition of viability [%]
Conditions | 0.1 nM | 1 nM | 10 nM | 100 nM | 1000 nM
DERL-7 (IL-2 2.5 ng/mL) [27] | -0.26 | -4.85 | 13.4 | 85.9 | 100
IMC-1 (IL-2 20 ng/mL) [24] | -7.6 | -2.62 | -0.06 | 88.2 | 99.8
KAI3 (IL-2 2.5 ng/mL) [18] | -17.1 | -0.05 | 19.4 | 74.9 | 89.1
KHYG-1 (IL-2 2.5 ng/mL) [26] | -8.45 | -6.72 | -0.27 | 79.3 | 98.3
NK-92 (IL-2 2.5 ng/mL) [17] | -8.55 | 11.3 | -2.45 | 64.2 | 96.6
NK-YS (IL-2 2.5 ng/mL) [15] | -8.43 | -6.33 | 14.6 | 83.5 | 95.3
NKL (IL-2 2.5 ng/mL) [21] | -17.6 | -0.29 | 89.2 | 102 | 97.3
SNK-6 (IL-2 2.5 ng/mL) [25] | 20 | 14.8 | 5.01 | 80.6 | 94.3
YT (IL-2 2.5 ng/mL) [19] | -4.73 | -5.55 | -0.81 | 69.3 | 97.2
[16] | -14 | -6.82 | -8.6 | 37.2 | 94.4
[20] | -18 | -16.6 | 1.78 | 70.1 | 92.1
[22] | -9.2 | -4.36 | 4.47 | 40.8 | 96.5
[23] | -4.57 | -14.4 | -9.04 | 23.1 | 97.2
[28] | -3.12 | -5.25 | -1.72 | 39.8 | 99.8

Cc1cc(C)c(CNC(=O)c2cc(-c3ccc(CN4CCOCC4)cc3)cc3c2cnn3C2CCCC2)c(=O)[nH]1 [EPZ-5687] (max concentration tested 10000 nM)
Conditions | drug sensitivity score
DERL-7 (IL-2 2.5 ng/mL) [13] | 0
IMC-1 (IL-2 20 ng/mL) [10] | 0
KAI3 (IL-2 2.5 ng/mL) [4] | 0
KHYG-1 (IL-2 2.5 ng/mL) [12] | 0
NK-92 (IL-2 2.5 ng/mL) [3] | 0
NK-YS (IL-2 2.5 ng/mL) [1] | 0
NKL (IL-2 2.5 ng/mL) [7] | 0
SNK-6 (IL-2 2.5 ng/mL) [11] | 0
YT (IL-2 2.5 ng/mL) [5] | 0
[2] | 0
[6] | 4.36
[8] | 0
[9] | 0
[14] | 0

percent inhibition of viability [%]
Conditions | 1 nM | 10 nM | 100 nM | 1000 nM | 10000 nM
DERL-7 (IL-2 2.5 ng/mL) [27] | -1.37 | 6.73 | -10.3 | -3.14 | 3.39
IMC-1 (IL-2 20 ng/mL) [24] | -4.92 | -2.89 | -1.1 | -3.52 | -3.58
KAI3 (IL-2 2.5 ng/mL) [18] | 1.34 | -2.83 | 3.75 | -1.27 | -8.91
KHYG-1 (IL-2 2.5 ng/mL) [26] | -5.28 | 1.66 | -5.39 | -4.15 | -3.04
NK-92 (IL-2 2.5 ng/mL) [17] | -18.6 | -17.5 | -11.1 | -7.12 | -16.9
NK-YS (IL-2 2.5 ng/mL) [15] | -6.64 | -3.26 | -5.52 | -1.38 | 4.13
NKL (IL-2 2.5 ng/mL) [21] | -7.92 | -9.21 | -9.03 | -6.87 | -4.34
SNK-6 (IL-2 2.5 ng/mL) [25] | -3.6 | 10.5 | -5.25 | -4.13 | -15.8
YT (IL-2 2.5 ng/mL) [19] | -2.28 | -2.31 | -4.1 | 0.78 | -1.43
[16] | -10.3 | -5.37 | -0.75 | -12.1 | -3.82
[20] | -3.8 | -2.57 | 0.76 | 26.6 | 18.2
[22] | -2.66 | -3.34 | -7.26 | -0.16 | 1.72
[23] | -6.45 | -1.35 | -6.34 | -4.92 | -4.19
[28] | -0.71 | -3.48 | -3.69 | -2.2 | 0.02
